In patent US6469003B1, “Pyridazinone derivatives” (Nihon Nohyaku Co., Ltd., priority 1998, dated 2002):
Read-outs that look alike come from different tables or passages of the source.

Key:
[1] = system: neutrophils isolated from human peripheral blood; assay: Test of neutrophil adhesion inhibitory activity (fMLP-induced adhesion to keyhole limpet hemocyanin-coated plate); format: cell-based; settings: fluorescence-labeled, fMLP final concentration of 50 nM, plate coated with keyhole limpet hemocyanin, 37° C., read-out: Test of neutrophil adhesion inhibitory (50% inhibition concentration) IC50
Method: Test Example (Test of Neutrophil Adhesion Inhibitory Activity)
To a 96 hole culture plate coated with keyhole limpet hemocyanin were added Dulbecco modified Eagle's media (DMEM, 25 μl) containing various concentrations of the test substance. The neutrophils isolated from human peripheral blood were labeled with fluorescence by means of 5,6-carboxyfluorescein diacetate, suspended into DMEM in a concentration of 1×10^6 cells/ml, and inoculated to the above plate in an amount of 50 μl. Then, after the addition of 25 μl of formylmethionyl-leucyl-phenylalanine (hereinafter referred to as “fMLP”) (final concentration of 50 nM), the cells were cultured at 37° C. for a certain period of time to induce the adhesion of the neutrophils to the plate. After culturing, the plate was washed with phosphate-buffered physiological saline to remove the neutrophils which were not adhered. The adhered neutrophils were dissolved and then the fluorescence intensity was measured. Using the data of a non-stimulated group where the stimulation with fMLP was not carried out and an fMLP-stimulated group where the stimulation was carried out, the adhesion inhibition rate at each concentration of the test substance was determined according to the following equation. From the concentration-inhibition curve, 50% inhibitory concentration (IC50) was calculated.
Adhesion inhibition rate (%)=(Fmax−Fx)/(Fmax−Fo)×100
Fx: the fluorescence intensity of the group treated with a test substance
Fmax: the fluorescence intensity of the fMLP-stimulated group
Fo: the fluorescence intensity of the non-stimulated group

Row | IC50 [1] [nM] | melting point [°C] | IC50 ([1]; Neutrophil) [nM] | Compound
1 | 10 | – | – | CC(=O)c1nn(-c2ccc(F)cc2)c(=O)c(Sc2ccncc2)c1C [Compound 1-25]
2 | 9 | – | – | CC(=O)c1nn(-c2ccc(F)cc2)c(=O)c(Sc2cccnc2)c1C [Compound 1-22]
3 | 93 | – | – | CC(=O)c1nn(-c2cccc(Cl)c2)c(=O)c(Sc2ccc([N+](=O)[O-])cc2)c1C [Compound 1-10]
4 | 27 | – | – | CC(=O)c1nn(-c2cccc(Cl)c2)c(=O)c(Sc2ccc(Cl)cc2)c1C [Compound 1-03]
5 | 975 | – | – | CC(=O)Nc1ccc(Sc2c(C)c(C(C)=O)nn(-c3ccc[n+]([O-])c3)c2=O)cc1 [Compound 1-151]
6 | 668 | – | – | O=C(O)c1cc(CSc2ccc(F)cc2)c(=O)n(-c2cccc(Cl)c2)n1 [Compound 1-80, 1-(3-chlorophenyl)-5-(4-fluorophenylthio)-methyl-6-oxohydropridazin-3-carboxylic acid]
7 | – | 182 to 184 | – | CC(=O)c1nn(-c2ccc(F)cc2)c(=O)c(Sc2ccc(NS(C)(=O)=O)cc2)c1C [Compound 4-01, 6-acetyl-2-(4-fluorophenyl)-5-methyl-4-(4-methylsulfonylaminophenylthio)-3(2H)-pyridazinone]
8 | 656 | – | – | CC(=O)c1nn(-c2cccc(F)c2)c(=O)c(-c2cccs2)c1C [Compound 1-98]
9 | 165 | – | – | CC(=O)c1nn(-c2cccnc2)c(=O)c(Sc2ccncc2)c1C [Compound 1-32]
10 | 619 | – | – | COc1ccccc1Sc1c(C)c(C(C)=O)nn(-c2cccc(Cl)c2)c1=O [Compound 1-04]
11 | 222 | – | – | CC(=O)c1nn(-c2ccc(Cl)cc2)c(=O)c(Sc2ccccc2)c1C [Compound 1-69]
12 | 44 | – | – | CC(=O)c1nn(-c2ccc(F)cc2)c(=O)c(OCc2ccncc2)c1C [Compound 1-115]
13 | 20 | – | – | CC(=O)c1nn(-c2cccc(Cl)c2)c(=O)c(Sc2ccc(F)cc2)c1C [Compound 1-07]
14 | – | 195 to 197 | – | CC(=O)c1nn(-c2cccc(Cl)c2)c(=O)c(C(N)=S)c1C [Compound 1-153, 6-acetyl-4-(aminothioxomethyl)-2-(3-chlorophenyl)-5-methyl-3(2H)-pyridazinone]
15 | 18 | – | – | CC(=O)c1nn(-c2cccc(Cl)c2)c(=O)c(Oc2ccccc2)c1C [Compound 1-70]
16 | – | 99 to 100 | 4 | CC(=O)c1nn(-c2cccc(Cl)c2)c(=O)c(Sc2ccccc2)c1C [Compound 1-64, 6-acetyl-2-(3-chlorophenyl)-5-methyl-4-phenylthio-3(2H)-pyridazinone]
17 | 32 | – | – | COc1cccc(Sc2c(C)c(C(C)=O)nn(-c3cccc(Cl)c3)c2=O)c1 [Compound 1-05]
18 | – | 172 to 174 | – | CC(=O)c1nn(-c2ccc(F)cc2)c(=O)c(Sc2ccc(N(C)C)cc2)c1C [Compound 4-04, 6-acetyl-4-(4-dimethylaminophenylthio)-2-(4-fluorophenyl)-5-methyl-3(2H)-pyridazinone]
19 | 55 | – | – | CC(=O)c1nn(-c2cccnc2)c(=O)c(Sc2ccc(F)cc2)c1C [Compound 1-31]
20 | 14 | – | – | CC(=O)c1nn(-c2ccc(F)cc2)c(=O)c(Sc2ccncc2)c1C [Compound 1-24]
21 | 10 | – | – | CC(=O)c1nn(-c2cccc(Cl)c2)c(=O)c([S+]([O-])c2ccccc2)c1C (centres unmarked) [Compound 1-84]
22 | – | 116 to 117 | 11 | CC(=O)c1nn(-c2cccc(Cl)c2)c(=O)c(-c2cccs2)c1C [Compound 1-97, 6-acetyl-2-(3-chlorophenyl)-5-methyl-4-(2-thienyl)-3(2H)-pyridazinone]
23 | 5 | – | – | CC(=O)c1nn(-c2ccc(F)cc2)c(=O)c(Sc2ccc(F)cc2)c1C [Compound 1-20]

Row | IC50 [1] [nM] | melting point [°C] | IC50 ([1]; Neutrophil) [nM] | Compound
24 | 196 | – | – | CC(=O)c1nn(-c2ccc(F)cc2)c(=O)c(Sc2ccccn2)c1C [Compound 1-21]
25 | 48 | – | – | CC(=O)c1nn(-c2cccc(F)c2)c(=O)c(Oc2ccc(F)cc2)c1C [Compound 1-74]
26 | 138 | – | – | CC(=O)c1nn(-c2ccc(F)cc2)c(=O)c(OCc2cc[n+]([O-])cc2)c1C [Compound 1-130, 6-acetyl-2-(4-fluorophenyl)-5-methyl-4-((4-pyridyl N-oxide)methoxy)-3(2H)-pyridazinone]
27 | – | 175 to 176 | 12 | CC(=O)c1nn(-c2cccc(Cl)c2)c(=O)c(S(=O)(=O)c2ccccc2)c1C [Compound 1-83, 6-acetyl-2-(3-chlorophenyl)-5-methyl-4-phenylsulfonyl-3(2H)-pyridazinone]
28 | – | 153 to 156 | – | CC(=O)c1nn(-c2ccc(F)cc2)c(=O)c(OCc2cccnc2)c1C.Cl
29 | 310 | – | – | CC(=O)c1nn(-c2cccnc2)c(=O)c(-c2cccs2)c1C [Compound 1-102]
30 | 58 | – | – | CSc1c(C)c(C(C)=O)nn(-c2cccc(Cl)c2)c1=O [Compound 1-15]
31 | 32 | – | – | CC(=O)c1nn(-c2cccc(Cl)c2)c(=O)c(Oc2ccc(F)cc2)c1C [Compound 1-73]
32 | 7 | – | – | CC(=O)c1nn(-c2cccnc2)c(=O)c(Sc2ccccc2)c1C [Compound 1-68]
33 | – | 158 to 160 | – | CC(=O)c1nn(-c2cccc(Cl)c2)c(=O)c(-c2nccs2)c1C [Compound 1-155, 6-acetyl-2-(3-chlorophenyl)-5-methyl-4-(1,3-thiazol-2-yl)-3(2H)-pyridazinone]
34 | 410 | – | – | CC(=O)c1nn(-c2ccc(F)cc2)c(=O)c(-c2cccs2)c1C [Compound 1-100]
35 | 463 | – | – | CC(=O)c1nn(-c2ccc[n+]([O-])c2)c(=O)c(Sc2ccc(F)cc2)c1C [Compound 1-134, 6-acetyl-4-(4-fluorophenylthio)-5-methyl-2-(3-pyridyl N-oxide)-3(2H)-pyridazinone]
36 | 16 | – | – | CC(=O)c1nn(-c2cccc(Cl)c2)c(=O)c(Sc2ccccc2Cl)c1C [Compound 1-01]
37 | – | 92 to 93 | – | CC(=O)c1nn(-c2ccc(F)cc2)c(=O)c(SCCN2CCOCC2)c1C [Compound 5-04, 6-acetyl-2-(4-fluorophenyl)-5-methyl-4-(2-morpholin-4-ylethylthio)-3(2H)-pyridazinone]
38 | – | 180 to 182 | 9 | Cc1c(C(C)O)nn(-c2cccc(Cl)c2)c(=O)c1Sc1ccccc1 (centres unmarked) [Compound 6-01, 2-(3-chlorophenyl)-6-(1-hydroxyethyl)-5-methyl-4-phenylthio-3(2H)-pyridazinone]
39 | 19 | – | – | CC(=O)c1nn(-c2cccc(Cl)c2)c(=O)c(SC(C)(C)C)c1C [Compound 1-17]
40 | 79 | – | – | CC(=O)c1nn(-c2cccc(Cl)c2)c(=O)c(Sc2ccccn2)c1C [Compound 1-11]
41 | 358 | – | – | CC(=O)c1nn(-c2ccc(F)cc2)c(=O)c(OCc2ccccn2)c1C [Compound 1-113]
42 | 40 | – | – | COc1ccc(Sc2c(C)c(C(C)=O)nn(-c3cccc(Cl)c3)c2=O)cc1 [Compound 1-06]
43 | 6 | – | – | CC(=O)c1nn(-c2ccc(F)cc2)c(=O)c(Sc2cccnc2)c1C [Compound 1-23]
44 | – | 165 to 166 | – | CC(=O)c1nn(-c2ccc(Cl)cc2)c(=O)c(Sc2ccc(Cl)cc2)c1C [Compound 1-29, 6-acetyl-2-(4-chlorophenyl)-4-(4-chlorophenylthio)-5-methyl-3(2H)-pyridazinone]
45 | 139 | – | – | CC(=O)c1nn(-c2cccc(Cl)c2)c(=O)c(Sc2ccc(C)cc2)c1C [Compound 1-08]

Row | Compound | IC50 [1] [nM] | melting point [°C] | IC50 ([1]; Neutrophil) [nM]
46 | Cc1c(C(C)O)nn(-c2ccc(F)cc2)c(=O)c1Sc1ccncc1 (centres unmarked) [Compound 6-02] | 306 | – | –
